Results on one compound are retold here after US20180267043A1, “USE OF BIOMARKERS FOR PREDICTING CLINICAL SENSITIVITY TO CANCER TREATMENT” (CELGENE CORPORATION, priority 2014, published 2018).

Assay [1] has as its system GSPT1, UPR or apoptosis pathways. The assay is described as follows: Protein level of UPR and apoptosis components in KG1 cells. Format: cell-based, human. Here is the method:
Cells were treated with DMSO alone or 20 nM Compound C. The expression levels of various cellular components along UPR or apoptosis pathways were measured at various time points post treatment.

In assay [2] the target is T1, human CRBN isoform 2 (IKZF1/3, GSPT1/2 as substrates) (Homo sapiens, UniProt Q96SW2, V388I).
T1 construct: expressed in transfected cells; host or cells: CRBN-/- cells (elsewhere: 293FT, CRISPR)
T1 sequence (Q96SW2 1-441 isoform Q96SW2-2 V387I): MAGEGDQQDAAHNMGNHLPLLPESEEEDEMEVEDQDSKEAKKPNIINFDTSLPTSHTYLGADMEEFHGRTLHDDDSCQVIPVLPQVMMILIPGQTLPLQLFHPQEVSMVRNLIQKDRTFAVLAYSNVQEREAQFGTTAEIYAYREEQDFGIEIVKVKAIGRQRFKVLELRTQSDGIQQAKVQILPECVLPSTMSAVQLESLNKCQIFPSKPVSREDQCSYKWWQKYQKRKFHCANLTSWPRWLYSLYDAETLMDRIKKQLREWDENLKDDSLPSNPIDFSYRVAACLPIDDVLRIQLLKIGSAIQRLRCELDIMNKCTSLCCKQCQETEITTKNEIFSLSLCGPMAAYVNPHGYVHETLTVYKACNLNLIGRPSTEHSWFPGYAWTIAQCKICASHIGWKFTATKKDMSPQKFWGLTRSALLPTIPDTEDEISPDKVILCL
T1 sequence (Q16531 whole entry partner, canonical isoform): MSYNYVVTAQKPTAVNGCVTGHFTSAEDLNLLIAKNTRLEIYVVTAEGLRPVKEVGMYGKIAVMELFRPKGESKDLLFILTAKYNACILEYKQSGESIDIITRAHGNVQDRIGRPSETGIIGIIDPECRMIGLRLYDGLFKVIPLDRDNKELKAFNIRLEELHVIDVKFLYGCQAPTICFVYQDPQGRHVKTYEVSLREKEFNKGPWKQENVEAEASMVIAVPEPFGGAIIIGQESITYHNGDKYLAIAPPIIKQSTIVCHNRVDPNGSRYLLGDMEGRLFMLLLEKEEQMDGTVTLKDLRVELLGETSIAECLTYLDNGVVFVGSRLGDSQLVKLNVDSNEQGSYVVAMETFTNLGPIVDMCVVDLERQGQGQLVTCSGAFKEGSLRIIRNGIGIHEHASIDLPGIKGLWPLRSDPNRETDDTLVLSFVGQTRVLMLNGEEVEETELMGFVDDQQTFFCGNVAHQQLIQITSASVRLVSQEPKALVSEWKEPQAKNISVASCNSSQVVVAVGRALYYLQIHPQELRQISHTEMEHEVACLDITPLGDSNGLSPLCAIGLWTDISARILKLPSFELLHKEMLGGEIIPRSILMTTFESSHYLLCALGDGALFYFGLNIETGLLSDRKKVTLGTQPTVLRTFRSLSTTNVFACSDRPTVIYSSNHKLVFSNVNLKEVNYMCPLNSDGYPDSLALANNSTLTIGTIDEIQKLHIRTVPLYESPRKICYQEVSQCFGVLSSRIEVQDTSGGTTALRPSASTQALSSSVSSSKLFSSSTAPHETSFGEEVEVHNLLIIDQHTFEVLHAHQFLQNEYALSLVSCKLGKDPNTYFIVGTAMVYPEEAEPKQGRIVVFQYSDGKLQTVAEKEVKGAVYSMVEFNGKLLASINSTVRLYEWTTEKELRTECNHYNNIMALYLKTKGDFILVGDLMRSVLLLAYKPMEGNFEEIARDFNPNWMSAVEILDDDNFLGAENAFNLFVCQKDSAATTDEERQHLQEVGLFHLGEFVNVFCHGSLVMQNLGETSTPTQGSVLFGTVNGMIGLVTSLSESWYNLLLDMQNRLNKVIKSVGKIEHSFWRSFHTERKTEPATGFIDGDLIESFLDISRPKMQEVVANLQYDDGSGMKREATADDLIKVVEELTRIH
Kind of assay: Substrate degradation in CRBN−/− cells expressing human CRBN isoform 2 or mutants. The note with it: hCRBNiso2 V387I; 1 μM Compound C. It is filed as cell-based. The source says:
(§1) They were co-expressed together with GFP in CRBN −/− cells. These cells also expressed human CRBN isoform 2, or various specific mutants (hCRBNiso2 E376V, hCRBNiso2 V387I, or hCRBNiso2 W385A) by transfection with corresponding DNA.

Assay [3] deals with T2, human CRBN isoform 2 (IKZF1/3, GSPT1/2 as substrates) (Homo sapiens, UniProt Q96SW2).
T2 construct: expressed in transfected cells; host or cells: CRBN-/- cells (elsewhere: 293FT, CRISPR)
T2 sequence (Q96SW2 1-441 isoform Q96SW2-2): as the sequence (Q96SW2 1-441 isoform Q96SW2-2 V387I) above, with I387V counted along it
T2 sequence (Q16531 whole entry partner, canonical isoform): as the sequence (Q16531 whole entry partner, canonical isoform) above
Described as above. It is filed as cell-based. The settings on record: cells expressing human CRBN isoform 2.
Excerpt: as §1

Assay [4] deals with human CRBN isoform 2 (IKZF1/3, GSPT1/2 as substrates). The description is as above. The note with it: CRBN−/− cells without human CRBN; 10 μM lenalidomide or 1 μM Compound C. Format: cell-based.
Excerpt: as §1

Assay [5] deals with T3, human CRBN isoform 2 (IKZF1/3, GSPT1/2 as substrates) (Homo sapiens, UniProt Q96SW2, E377V).
T3 construct: expressed in transfected cells; host or cells: CRBN-/- cells (elsewhere: 293FT, CRISPR)
T3 sequence (Q96SW2 1-441 isoform Q96SW2-2 E376V): as the sequence (Q96SW2 1-441 isoform Q96SW2-2 V387I) above, with E376V, I387V counted along it
T3 sequence (Q16531 whole entry partner, canonical isoform): as the sequence (Q16531 whole entry partner, canonical isoform) above
The assay is described as above. Format: cell-based. The settings on record: hCRBNiso2 E376V; 1 μM Compound C.
Excerpt: as §1

For assay [6], the system named is HEK 293FT cells. The assay is described as follows: CellTiter-Glo cell viability assay, HEK 293FT cells with GSPT1 shRNA. Format: cell-based, human. As to the method: The effect of depletion of GSPT1 on Compound C-induced anti-proliferation was examined in HEK 293FT cells. Cells were infected with either expression vector alone, or vector containing control shRNA or GSPT1-specific shRNA. The cells were then treated with Compound C at different concentrations. Cell proliferation was measured by the CellTiter-Glo cell viability assay (RLU-Relative Luminescent Unit).
(In ATP-based viability assays light output follows the ATP content of the culture.)

In assay [7] the target is T4, mouse CRBN isoform 2 (IKZF1/3, GSPT1/2 as substrates) (Mus musculus, UniProt Q8C7D2, V380E).
T4 construct: expressed in transfected cells; host or cells: CRBN-/- cells (elsewhere: 293FT, CRISPR)
T4 sequence (Q8C7D2 whole entry V380E, canonical isoform): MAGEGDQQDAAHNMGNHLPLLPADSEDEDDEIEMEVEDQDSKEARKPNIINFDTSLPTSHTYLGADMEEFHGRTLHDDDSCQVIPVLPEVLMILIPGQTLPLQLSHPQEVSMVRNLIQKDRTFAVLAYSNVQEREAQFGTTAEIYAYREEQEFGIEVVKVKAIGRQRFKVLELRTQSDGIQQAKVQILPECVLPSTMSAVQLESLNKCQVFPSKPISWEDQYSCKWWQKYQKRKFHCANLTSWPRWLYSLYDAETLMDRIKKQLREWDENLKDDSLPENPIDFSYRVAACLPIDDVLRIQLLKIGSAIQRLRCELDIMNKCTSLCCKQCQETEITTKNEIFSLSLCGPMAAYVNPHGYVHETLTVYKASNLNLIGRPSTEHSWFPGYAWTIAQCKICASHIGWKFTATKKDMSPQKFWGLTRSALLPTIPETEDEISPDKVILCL
Kind of assay: Substrate degradation in CRBN−/− cells expressing mouse CRBN isoform 2 or mutants. Format: cell-based. The settings on record: mouse CRBN isoform 2 V380E; 1 μM Compound C. The source says:
(§2) To test this hypothesis, specific mutations in the compound-binding domain of mouse CRBN isoform2 were generated, such as V380E and I391V. Wild type mouse CRBN isoform 2 or each mutant was introduced to CRBN−/− cells. […] Thus, in mouse CRBN isoform 2, V380E and I391V mutations are sufficient to trigger the degradation of IKZF1/3 and GSPT1/2, respectively.

In assay [8] the target is T5, mouse CRBN isoform 2 (IKZF1/3, GSPT1/2 as substrates) (Mus musculus, UniProt Q8C7D2, I391V).
T5 construct: expressed in transfected cells; host or cells: CRBN-/- cells (elsewhere: 293FT, CRISPR)
T5 sequence (Q8C7D2 whole entry I391V, canonical isoform): as the sequence (Q8C7D2 whole entry V380E, canonical isoform) above, with E380V, I391V counted along it
Described as above. The note with it: mouse CRBN isoform 2 I391V; 10 μM lenalidomide or 1 μM Compound C. Format: cell-based.
Excerpt: as §2

Assay [9] relates to Human Acute Myeloblastic Leukemia Cell Line KG1. The assay is described as follows: Anti-proliferative effect after GSPT1 knockdown, KG1 (FIG. 12A). Format: cell-based.
Assay [10] has as its system GSPT1/eRF3a, GSPT2/eRF3b, and HBS1L/eRF3c. The assay is described as follows: Immunoblotting of CRBN/Compound C substrates in 293 HEK cells. Format: cell-based, human. The settings on record: 8 hours. Here is the method:
Immunblotting analysis was performed to confirm GSPT1/eRF3a, GSPT2/eRF3b, and HBS1L/eRF3c as authentic substrates of the CRBN/Compound C complex. 293 HEK cells transiently transfected with HA-tagged HBS1L or FLAG-tagged GSPT2 were treated with Compound at the indicated concentrations for 8 hours.

For the compound `Cc1ccc(NC(=O)NCc2ccc3c(c2)CN(C2CCC(=O)NC2=O)C3=O)cc1Cl` (stereo not shown) [Compound C, 1-(3-chloro-4-methylphenyl)-3-((2-(2,6-dioxopiperidin-3-yl)-1-oxoisoindolin-5-yl)methyl)urea], the “Levels of Mcl-1 and pS112-BAD” value in assay [1] (KG1 (FIG. 18B)) is recorded as “decrease in response to Compound C treatment”. The “Levels of cleaved Caspase-8, BID, cleaved Caspase-9, cleaved Caspase-3, cleaved Caspase-7, and cleaved PARP” value in [1] (KG1 (FIG. 18B)) is listed as “increase in response to Compound C treatment”. Moreover, in assay [1] (KG1, 20 nM), the “Degradation of GSPT1” value is given as “induced degradation of GSPT1”. Moreover, the “Expression of ATF-4 and ATF-3” value in assay [1] (KG1, 20 nM) was “increased the expression of ATF-4 and its downstream target ATF-3”. Also, in assay [1] (KG1, 20 nM), the “Levels of pEIF2α, DDIT3, cleaved Caspase-3, and cleaved PARP” value is on record as “also increased”. The “Degradation of IKZF1/3” value in assay [2] is “abolishes Compound C-induced degradation of IKZF1/3”; in assay [8], “restores both lenalidomide- and Compound C-induced degradation of IKZF1/3”. Further, in assay [3] (1 μM Compound C), the “Destruction of GSPT1/2” value is “induces destruction of IKZF1/3 and GSPT1/2”. Also, the “Destruction of IKZF1/3” value in assay [3] (10 μM lenalidomide or 1 μM Compound C) is “induces destruction of IKZF1/3 and GSPT1/2”. Further, the “Degradation of tested substrates (IKZF1/3, GSPT1/2)” value in assay [4] is reported as “neither compound triggers degradation of any tested substrate”. Also, the figures for the “Degradation of GSPT1/2” value in [5] and in assay [7] were “abolishes Compound C-induced degradation of GSPT1/2” and “restores Compound C-induced degradation of GSPT1/2”, respectively. Moreover, the Cell proliferation result is “show sensitivity to Compound C-induced anti-proliferation” in assay [6] (CRBN+/+ parental cells, expression vector alone, or control shRNA); “cannot inhibit cell proliferation” in assay [6] (CRBN−/− cells); “growth inhibition starting at even lower concentration of compound treatment” in [6] (GSPT1-specific shRNA knockdown). Also, the Anti-proliferative effect entry in [9] (KG1 (FIG. 12A)) was “exhibited anti-proliferative effect”; in assay [9] (KG1, GSPT1 downregulated by shGSPT1-1 or shGSPT1-3), “the anti-proliferative effect increased”. The “Binding partners of CRBN induced by compound binding” value in assay [10] was “GSPT1/eRF3a, GSPT2/eRF3b, and HBS1L/eRF3c are binding partners of CRBN induced by Compound C binding”. The “Degradation of GSPT1/eRF3a, GSPT2/eRF3b, and HBS1L/eRF3c” value in [10] (increased concentration) was “induces degradation”.
